Assays:
late watergrass = assay: Test Example 1: herbicidal activity, application before weed generation under submerged conditions (Table 16, symbol A); format: in vivo, late watergrass (Echinochloa oryzicola); details: 320 g/ha applied herbicide
In short: (§1)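 Alluvial soil was flooded to 4 cm depth, weed seeds were sown mixed and 2.5-leaf rice seedlings were transplanted. On sowing day, the compound's emulsion, diluted in water to a set dose, was applied to the water surface. Plants grew at 25–30 °C and were scored 0–5 after three weeks.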

Japanese bulrush = assay: Test Example 1: herbicidal activity, application before weed generation under submerged conditions (Table 16, symbol B); format: in vivo, Japanese bulrush (Schoenoplectus juncoides); details: 320 g/ha applied herbicide
In short: as §1

oval-leafed pondweed = assay: Test Example 1: herbicidal activity, application before weed generation under submerged conditions (Table 16, symbol C); format: in vivo, oval-leafed pondweed (Monochoria vaginalis); details: 320 g/ha applied herbicide
In short: as §1

barnyard grass [1] = assay: Test Example 3: herbicidal effect by foliage application, Wagner pot (Table 18, symbol H); format: in vivo, barnyard grass (Echinochloa crus-galli); details: amount of applied herbicide 320 g/ha
In short: (§2)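 Plants were sown in alluvial soil held under 0.1–0.5 cm standing water and grown 14 days in a greenhouse at 25–30 °C. An emulsifiable formulation, water-diluted to the set dose, was then sprayed onto the foliage, and effects were scored three weeks later using previously defined criteria.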

Chinese sprangletop = assay: Test Example 3: herbicidal effect by foliage application, Wagner pot (Table 18, symbol D); format: in vivo, chinese sprangletop (Leptochloa chinensis); details: amount of applied herbicide 320 g/ha
In short: as §2

rice flat sedge = assay: Test Example 3: herbicidal effect by foliage application, Wagner pot (Table 18, symbol E); format: in vivo, rice flat sedge (Cyperus iria); details: amount of applied herbicide 320 g/ha
In short: as §2

southern crabgrass [2] = assay: Test Example 4: herbicidal effect by soil treatment (Table 19, symbol F); format: in vivo, southern crabgrass (Digitaria ciliaris); details: amount of applied herbicide 320 g/ha
In short: (§3)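 Scoring uses the grading scale of an earlier test, three weeks post-application. Treatment consists of spraying a diluted emulsion formulation across the surface of sterilized diluvial soil in which seeds are buried near 1.5 cm deep; boxes are kept in a greenhouse between 25° C. and 30° C.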

green foxtail [3] = assay: Test Example 4: herbicidal effect by soil treatment (Table 19, symbol G); format: in vivo, green foxtail (Setaria viridis); details: amount of applied herbicide 320 g/ha
In short: as §3

barnyard grass [4] = assay: Test Example 4: herbicidal effect by soil treatment (Table 19, symbol H); format: in vivo, barnyard grass (Echinochloa crus-galli); details: amount of applied herbicide 320 g/ha
In short: as §3

wild oat [5] = assay: Test Example 4: herbicidal effect by soil treatment (Table 19, symbol I); format: in vivo, wild oat (Avena fatua); details: amount of applied herbicide 320 g/ha
In short: as §3

blackgrass [6] = assay: Test Example 4: herbicidal effect by soil treatment (Table 19, symbol J); format: in vivo, blackgrass (Alopecurus myosuroides); details: amount of applied herbicide 320 g/ha
In short: as §3

Italian ryegrass [7] = assay: Test Example 4: herbicidal effect by soil treatment (Table 19, symbol K); format: in vivo, Italian ryegrass (Lolium multiflorum); details: amount of applied herbicide 320 g/ha
In short: as §3

windgrass [8] = assay: Test Example 4: herbicidal effect by soil treatment (Table 19, symbol L); format: in vivo, windgrass (Apera spica-venti); details: amount of applied herbicide 320 g/ha
In short: as §3

velvetleaf [9] = assay: Test Example 4: herbicidal effect by soil treatment (Table 19, symbol M); format: in vivo, velvetleaf (Abutilon theophrasti); details: amount of applied herbicide 320 g/ha
In short: as §3

redroot pigweed [10] = assay: Test Example 4: herbicidal effect by soil treatment (Table 19, symbol N); format: in vivo, redroot pigweed (Amaranthus retroflexus); details: amount of applied herbicide 320 g/ha
In short: as §3

lambsquarters [11] = assay: Test Example 4: herbicidal effect by soil treatment (Table 19, symbol O); format: in vivo, lambsquarters (Chenopodium album); details: amount of applied herbicide 320 g/ha
In short: as §3

chickweed [12] = assay: Test Example 4: herbicidal effect by soil treatment (Table 19, symbol P); format: in vivo, common chickweed (Stellaria media); details: amount of applied herbicide 320 g/ha
In short: as §3

false cleavers = assay: Test Example 4: herbicidal effect by soil treatment (Table 19, symbol Q); format: in vivo, false cleavers (Galium spurium); details: amount of applied herbicide 320 g/ha
In short: as §3

southern crabgrass [13] = assay: Test Example 5: herbicidal effect by foliage application, plastic box (Table 20, symbol F); format: in vivo, southern crabgrass (Digitaria ciliaris); details: foliage application, AAH 320 g/ha, evaluated three weeks after application
In short: (§4)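 Post-emergence foliar test in sterilized diluvial soil. Compound applied as water-diluted emulsion at a predetermined rate to 14-day-old plants; evaluation at three weeks.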

green foxtail [14] = assay: Test Example 5: herbicidal effect by foliage application, plastic box (Table 20, symbol G); format: in vivo, green foxtail (Setaria viridis); details: foliage application, AAH 320 g/ha, evaluated three weeks after application
In short: as §4

barnyard grass [15] = assay: Test Example 5: herbicidal effect by foliage application, plastic box (Table 20, symbol H); format: in vivo, barnyard grass (Echinochloa crus-galli); details: foliage application, AAH 320 g/ha, evaluated three weeks after application
In short: as §4

wild oat [16] = assay: Test Example 5: herbicidal effect by foliage application, plastic box (Table 20, symbol I); format: in vivo, wild oat (Avena fatua); details: foliage application, AAH 320 g/ha, evaluated three weeks after application
In short: as §4

blackgrass [17] = assay: Test Example 5: herbicidal effect by foliage application, plastic box (Table 20, symbol J); format: in vivo, blackgrass (Alopecurus myosuroides); details: foliage application, AAH 320 g/ha, evaluated three weeks after application
In short: as §4

Italian ryegrass [18] = assay: Test Example 5: herbicidal effect by foliage application, plastic box (Table 20, symbol K); format: in vivo, Italian ryegrass (Lolium multiflorum); details: foliage application, AAH 320 g/ha, evaluated three weeks after application
In short: as §4

windgrass [19] = assay: Test Example 5: herbicidal effect by foliage application, plastic box (Table 20, symbol L); format: in vivo, windgrass (Apera spica-venti); details: foliage application, AAH 320 g/ha, evaluated three weeks after application
In short: as §4

velvetleaf [20] = assay: Test Example 5: herbicidal effect by foliage application, plastic box (Table 20, symbol M); format: in vivo, velvetleaf (Abutilon theophrasti); details: foliage application, AAH 320 g/ha, evaluated three weeks after application
In short: as §4

redroot pigweed [21] = assay: Test Example 5: herbicidal effect by foliage application, plastic box (Table 20, symbol N); format: in vivo, redroot pigweed (Amaranthus retroflexus); details: foliage application, AAH 320 g/ha, evaluated three weeks after application
In short: as §4

lambsquarters [22] = assay: Test Example 5: herbicidal effect by foliage application, plastic box (Table 20, symbol O); format: in vivo, lambsquarters (Chenopodium album); details: foliage application, AAH 320 g/ha, evaluated three weeks after application
In short: as §4

chickweed [23] = assay: Test Example 5: herbicidal effect by foliage application, plastic box (Table 20, symbol P); format: in vivo, common chickweed (Stellaria media); details: foliage application, AAH 320 g/ha, evaluated three weeks after application
In short: as §4

persian speedwell = assay: Test Example 5: herbicidal effect by foliage application, plastic box (Table 20, symbol R); format: in vivo, Persian speedwell (Veronica persica); details: foliage application, AAH 320 g/ha, evaluated three weeks after application
In short: as §4

Question: Which results are given for `Cc1nn(C)c(=O)c(-c2c(-c3ccc(CSCC(F)F)cc3)sc3ccc(F)cc23)c1O` [2-330]?
Answer: Herbicidal effect on A: late watergrass (grade 0-5) (late watergrass): 3 (Herbicidal rate of 40% or more and less than 70%); Herbicidal effect on B: Japanese bulrush (grade 0-5) (Japanese bulrush): 0 (Herbicidal rate of 5% or less (almost no effect)); Herbicidal effect on C: oval-leafed pondweed (grade 0-5) (oval-leafed pondweed): 0 (Herbicidal rate of 5% or less (almost no effect)); herbicidal effect on H: barnyard grass (barnyard grass [1]): 5 (Herbicidal rate of 90% or more (almost completely withered)); herbicidal effect on D: Chinese sprangletop (Chinese sprangletop): 2 (Herbicidal rate of 20% or more and less than 40%); herbicidal effect on E: rice flat sedge (rice flat sedge): 4 (Herbicidal rate of 70% or more and less than 90%); herbicidal effect on F: southern crabgrass (southern crabgrass [2]): 3 (Herbicidal rate of 40% or more and less than 70%); herbicidal effect on G: green foxtail (green foxtail [3]): 1 (Herbicidal rate of 5% or more and less than 20%); herbicidal effect on H: barnyard grass (barnyard grass [4]): 2 (Herbicidal rate of 20% or more and less than 40%); herbicidal effect on I: wild oat (wild oat [5]): 0 (Herbicidal rate of 5% or less (almost no effect)); herbicidal effect on J: blackgrass (blackgrass [6]): 0 (Herbicidal rate of 5% or less (almost no effect)); herbicidal effect on K: Italian ryegrass (Italian ryegrass [7]): 4 (Herbicidal rate of 70% or more and less than 90%); herbicidal effect on L: windgrass (windgrass [8]): 0 (Herbicidal rate of 5% or less (almost no effect)); herbicidal effect on M: velvetleaf (velvetleaf [9]): 1 (Herbicidal rate of 5% or more and less than 20%); herbicidal effect on N: redroot pigweed (redroot pigweed [10]): 4 (Herbicidal rate of 70% or more and less than 90%); herbicidal effect on O: lambsquarters (lambsquarters [11]): 3 (Herbicidal rate of 40% or more and less than 70%); herbicidal effect on P: chickweed (chickweed [12]): 0 (Herbicidal rate of 5% or less (almost no effect)); herbicidal effect on Q: false cleavers (false cleavers): 0 (Herbicidal rate of 5% or less (almost no effect)); F: southern crabgrass, herbicidal effect (criteria 0-5) (southern crabgrass [13]): 5 (Herbicidal rate of 90% or more (almost completely withered)); G: green foxtail, herbicidal effect (criteria 0-5) (green foxtail [14]): 5 (Herbicidal rate of 90% or more (almost completely withered)); H: barnyard grass, herbicidal effect (criteria 0-5) (barnyard grass [15]): 5 (Herbicidal rate of 90% or more (almost completely withered)); I: wild oat, herbicidal effect (criteria 0-5) (wild oat [16]): 4 (Herbicidal rate of 70% or more and less than 90%); J: blackgrass, herbicidal effect (criteria 0-5) (blackgrass [17]): 4 (Herbicidal rate of 70% or more and less than 90%); K: Italian ryegrass, herbicidal effect (criteria 0-5) (Italian ryegrass [18]): 5 (Herbicidal rate of 90% or more (almost completely withered)); L: windgrass, herbicidal effect (criteria 0-5) (windgrass [19]): 5 (Herbicidal rate of 90% or more (almost completely withered)); M: velvetleaf, herbicidal effect (criteria 0-5) (velvetleaf [20]): 5 (Herbicidal rate of 90% or more (almost completely withered)); N: redroot pigweed, herbicidal effect (criteria 0-5) (redroot pigweed [21]): 5 (Herbicidal rate of 90% or more (almost completely withered)); O: lambsquarters, herbicidal effect (criteria 0-5) (lambsquarters [22]): 5 (Herbicidal rate of 90% or more (almost completely withered)); P: chickweed, herbicidal effect (criteria 0-5) (chickweed [23]): 5 (Herbicidal rate of 90% or more (almost completely withered)); R: persian speedwell, herbicidal effect (criteria 0-5) (persian speedwell): 5 (Herbicidal rate of 90% or more (almost completely withered))
